Experiments:
Assay type in all cases: cell-based
human PBM cells = test: Cellular toxicity assay, PBM cells
Description: (§1) The toxicity of the compounds was assessed in Vero, human PBM, CEM (human lymphoblastoid), MT-2, and HepG2 cells, as described previously (see Schinazi R. F., Sommadossi J.-P., Saalmann V., Cannon D. L., Xie M.-Y., Hart G. C., Smith G. A. & Hahn E. F. Antimicrob. Agents Chemother. 1990, 34, 1061-67). Cycloheximide was included as positive cytotoxic control, and untreated cells exposed to solvent were included as negative controls. The cytotoxicity IC50 was obtained from the concentration-response curve using the median effective method described previously (see Chou T.-C. & Talalay P. Adv. Enzyme Regul. 1984, 22, 27-55; Belen'kii M. S. & Schinazi R. F. Antiviral Res. 1994, 25, 1-11).

[1] = test system: CEM (human lymphoblastoid) cells; test: Cellular toxicity assay, CEM cells
Description: as §1

Vero cells = test: Cellular toxicity assay, Vero cells
Description: as §1

SMILES	Toxicities (μM) PBM (human PBM cells)	Toxicities (μM) CEM [1]	Toxicities (μM) VERO (Vero cells)
COC(=O)N[C@H](C(=O)N1C[C@@H](n2cc(C(=O)OC)nn2)C[C@H]1c1ncc(-c2ccc(-c3ccc(-c4cnc([C@@H]5C[C@H](n6cc(C(=O)OC)nn6)CN5C(=O)[C@@H](NC(=O)OC)C(C)C)[nH]4)cc3)cc2)[nH]1)C(C)C	53 µM	13.5 µM	≥100 µM
COC(=O)N[C@H](C(=O)N1C[C@@H](n2cc(COC(C)=O)nn2)C[C@H]1c1ncc(-c2ccc(-c3ccc(-c4cnc([C@@H]5C[C@H](n6cc(COC(C)=O)nn6)CN5C(=O)[C@@H](NC(=O)OC)C(C)C)[nH]4)cc3)cc2)[nH]1)C(C)C	53 µM	13.5 µM	≥100 µM
COC(=O)N[C@H](C(=O)N1C[C@@H](SC)C[C@H]1c1ncc(-c2ccc(-c3ccc(-c4cnc([C@@H]5C[C@H](SC)CN5C(=O)[C@@H](NC(=O)OC)C(C)C)[nH]4)cc3)cc2)[nH]1)C(C)C	15.6 µM	13.3 µM	10.9 µM
COC(=O)N[C@H](C(=O)N1C[C@H](n2cc(-c3ccccc3)nn2)C[C@H]1c1ncc(-c2ccc(-c3ccc(-c4cnc([C@@H]5C[C@@H](n6cc(-c7ccccc7)nn6)CN5C(=O)[C@@H](NC(=O)OC)C(C)C)[nH]4)cc3)cc2)[nH]1)C(C)C	>100 µM	>100 µM	>100 µM
COC(=O)N[C@H](C(=O)N1C[C@H](n2ccnn2)C[C@H]1c1ncc(-c2ccc(-c3ccc(-c4cnc([C@@H]5C[C@@H](n6cc([Si](C)(C)C)nn6)CN5C(=O)[C@@H](NC(=O)OC)C(C)C)[nH]4)cc3)cc2)[nH]1)C(C)C	3 µM	16.2 µM	>100 µM
COC(=O)N[C@H](C(=O)N1C[C@H](n2cc([Si](C)(C)C)nn2)C[C@H]1c1ncc(-c2ccc(-c3ccc(-c4cnc([C@@H]5C[C@@H](n6cc([Si](C)(C)C)nn6)CN5C(=O)[C@@H](NC(=O)OC)C(C)C)[nH]4)cc3)cc2)[nH]1)C(C)C	>100 µM	25.2 µM	>100 µM

Reference: patent publication US9932326B2, “Potent and selective inhibitors of hepatitis C virus” (Cocrystal Pharma, LLC, priority 2010, dated 2018)
